Assay results as given in the NIST ThermoML archive (doi:10.1021/je900691n).
± gives the expanded uncertainty stated by the source.

Assay: xn = mol fraction of the nth substance listed
Conditions: Liquid, Pycnometric method

COC(=O)OC [dimethyl carbonate] + O=C=O
mass density [kg/m3]
Conditions	308.15 K	313.15 K
6160 kPa, x1 = 0.1484	926 ± 4	–
6420 kPa, x1 = 0.118	904 ± 4	–
6750 kPa, x1 = 0.086	864 ± 4	–
6760 kPa, x1 = 0.1484	931 ± 4	–
6780 kPa, x1 = 0.1484	–	905 ± 4
6900 kPa, x1 = 0.118	909 ± 4	–
7020 kPa, x1 = 0.118	–	880 ± 4
7160 kPa, x1 = 0.0481	787 ± 4	–
7260 kPa, x1 = 0.1484	936 ± 4	–
7280 kPa, x1 = 0.1484	–	909 ± 4
7340 kPa, x1 = 0.086	–	834 ± 4
7500 kPa, x1 = 0.118	–	886 ± 4
7520 kPa, x1 = 0.0242	697 ± 4	–
7620 kPa, x1 = 0.0481	800 ± 4	–
7630 kPa, x1 = 0.0242	705 ± 4	–
7680 kPa, x1 = 0.118	917 ± 4	–
7730 kPa, x1 = 0.1484	939 ± 4	–
7780 kPa, x1 = 0.0242	718 ± 4	–
7780 kPa, x1 = 0.1484	–	914 ± 4
7850 kPa, x1 = 0.0481	–	740 ± 4
7940 kPa, x1 = 0.086	881 ± 4	–
7990 kPa, x1 = 0.0242	731 ± 4	–
8050 kPa, x1 = 0.0481	–	748 ± 4
8050 kPa, x1 = 0.118	–	893 ± 4
8200 kPa, x1 = 0.118	922 ± 4	–
8220 kPa, x1 = 0.0242	–	606 ± 4
8230 kPa, x1 = 0.0242	744 ± 4	–
8230 kPa, x1 = 0.0481	816 ± 4	–
8250 kPa, x1 = 0.0242	–	613 ± 4
8250 kPa, x1 = 0.1484	943 ± 4	–
8260 kPa, x1 = 0.0481	–	757 ± 4
8290 kPa, x1 = 0.0242	–	622 ± 4
8290 kPa, x1 = 0.1484	–	918 ± 4
8350 kPa, x1 = 0.086	–	852 ± 4
8380 kPa, x1 = 0.0242	–	636 ± 4
8480 kPa, x1 = 0.0242	755 ± 4	–
8490 kPa, x1 = 0.0242	–	650 ± 4
8510 kPa, x1 = 0.0481	–	767 ± 4
8590 kPa, x1 = 0.0242	–	665 ± 4
8730 kPa, x1 = 0.086	890 ± 4	–
8740 kPa, x1 = 0.0481	827 ± 4	–
8760 kPa, x1 = 0.0242	–	681 ± 4
8760 kPa, x1 = 0.1484	–	922 ± 4
8780 kPa, x1 = 0.1484	947 ± 4	–
8790 kPa, x1 = 0.086	–	859 ± 4
8870 kPa, x1 = 0.0242	770 ± 4	–
8920 kPa, x1 = 0.0242	–	692 ± 4
8930 kPa, x1 = 0.0481	–	780 ± 4
9000 kPa, x1 = 0.118	–	903 ± 4
9030 kPa, x1 = 0.118	929 ± 4	–
9110 kPa, x1 = 0.0242	–	705 ± 4
9180 kPa, x1 = 0.0242	780 ± 4	–
9250 kPa, x1 = 0.0481	837 ± 4	–
9250 kPa, x1 = 0.086	–	865 ± 4
9250 kPa, x1 = 0.1484	–	926 ± 4
9260 kPa, x1 = 0.1484	950 ± 4	–
9420 kPa, x1 = 0.0242	–	721 ± 4
9480 kPa, x1 = 0.0481	–	795 ± 4
9630 kPa, x1 = 0.0242	–	731 ± 4
9630 kPa, x1 = 0.086	900 ± 4	–
9640 kPa, x1 = 0.0242	792 ± 4	–
9650 kPa, x1 = 0.118	–	910 ± 4
9670 kPa, x1 = 0.118	935 ± 4	–
9690 kPa, x1 = 0.0481	844 ± 4	–
9720 kPa, x1 = 0.086	–	871 ± 4
9740 kPa, x1 = 0.1484	953 ± 4	–
9770 kPa, x1 = 0.1484	–	930 ± 4
9920 kPa, x1 = 0.0242	799 ± 4	–
9960 kPa, x1 = 0.0242	–	744 ± 4
9960 kPa, x1 = 0.0481	–	807 ± 4
10120 kPa, x1 = 0.0481	852 ± 4	–
10130 kPa, x1 = 0.086	905 ± 4	876 ± 4
10180 kPa, x1 = 0.0242	806 ± 4	–
10230 kPa, x1 = 0.1484	956 ± 4	–
10240 kPa, x1 = 0.1484	–	934 ± 4
10280 kPa, x1 = 0.0242	–	755 ± 4
10300 kPa, x1 = 0.118	–	916 ± 4
10420 kPa, x1 = 0.0481	–	816 ± 4
10530 kPa, x1 = 0.0481	858 ± 4	–
10580 kPa, x1 = 0.0242	–	765 ± 4
10600 kPa, x1 = 0.0242	814 ± 4	–
10600 kPa, x1 = 0.118	942 ± 4	–
10740 kPa, x1 = 0.1484	–	937 ± 4
10770 kPa, x1 = 0.1484	960 ± 4	–
10870 kPa, x1 = 0.086	–	885 ± 4
10930 kPa, x1 = 0.086	913 ± 4	–
10980 kPa, x1 = 0.0242	–	775 ± 4
11010 kPa, x1 = 0.0242	822 ± 4	–
11010 kPa, x1 = 0.0481	–	827 ± 4
11010 kPa, x1 = 0.118	–	922 ± 4
11080 kPa, x1 = 0.0481	865 ± 4	–
11120 kPa, x1 = 0.086	–	888 ± 4
11180 kPa, x1 = 0.118	946 ± 4	–
11230 kPa, x1 = 0.1484	962 ± 4	–
11280 kPa, x1 = 0.1484	–	941 ± 4
11290 kPa, x1 = 0.0242	828 ± 4	–
11340 kPa, x1 = 0.086	917 ± 4	–
11400 kPa, x1 = 0.0242	–	785 ± 4
11430 kPa, x1 = 0.0481	–	834 ± 4
11500 kPa, x1 = 0.0481	871 ± 4	–
11550 kPa, x1 = 0.118	–	927 ± 4
11710 kPa, x1 = 0.086	–	893 ± 4
11740 kPa, x1 = 0.0242	–	793 ± 4
11740 kPa, x1 = 0.1484	966 ± 4	–
11750 kPa, x1 = 0.0242	836 ± 4	–
11770 kPa, x1 = 0.1484	–	944 ± 4
11800 kPa, x1 = 0.086	921 ± 4	–
11950 kPa, x1 = 0.0481	–	842 ± 4
12020 kPa, x1 = 0.0242	839 ± 4	–
12030 kPa, x1 = 0.118	–	930 ± 4
12040 kPa, x1 = 0.0481	878 ± 4	–
12080 kPa, x1 = 0.0242	–	801 ± 4
12130 kPa, x1 = 0.086	–	898 ± 4
12210 kPa, x1 = 0.086	924 ± 4	–
12230 kPa, x1 = 0.1484	969 ± 4	–
12300 kPa, x1 = 0.118	954 ± 4	–
12330 kPa, x1 = 0.1484	–	948 ± 4
12420 kPa, x1 = 0.0242	846 ± 4	–
12450 kPa, x1 = 0.0481	–	849 ± 4
12520 kPa, x1 = 0.0242	–	809 ± 4
12530 kPa, x1 = 0.0481	883 ± 4	–
12700 kPa, x1 = 0.086	–	903 ± 4
12700 kPa, x1 = 0.118	–	935 ± 4
12740 kPa, x1 = 0.1484	971 ± 4	–
12780 kPa, x1 = 0.0242	852 ± 4	–
12850 kPa, x1 = 0.086	929 ± 4	–
12970 kPa, x1 = 0.0481	888 ± 4	–
13270 kPa, x1 = 0.1484	975 ± 4	–
13350 kPa, x1 = 0.086	934 ± 4	–
13660 kPa, x1 = 0.0481	895 ± 4	–
13820 kPa, x1 = 0.1484	978 ± 4	–
13850 kPa, x1 = 0.086	937 ± 4	–
14140 kPa, x1 = 0.086	939 ± 4	–
14270 kPa, x1 = 0.1484	980 ± 4	–
14460 kPa, x1 = 0.0481	903 ± 4	–
14760 kPa, x1 = 0.086	944 ± 4	–
15030 kPa, x1 = 0.1484	984 ± 4	–
15060 kPa, x1 = 0.068	946 ± 4	–
15240 kPa, x1 = 0.0481	911 ± 4	–
15490 kPa, x1 = 0.068	949 ± 4	–
15690 kPa, x1 = 0.1484	987 ± 4	–
16010 kPa, x1 = 0.068	953 ± 4	–
16350 kPa, x1 = 0.1484	990 ± 4	–
